Marks after values point to notes of the source that are not given here.
Test system: N171-82Q HD mice
Assay: High-altitude balance beam (5 mm) experiment 2, HD mice
Format: in vivo, mouse
Settings: 5 mg/kg/d intragastric, 12 w
Experimental: (§1) 7-week-old N171-82Q HD male mice were paired with female B6C3F1/J hybrid mice to obtain newborn mice. From 21 days of age, male mice were housed in separate cages. 0.5 cm of mouse tail tissue was removed to extract DNA to determine the genotype of the mouse, such that N171-82Q HD mice and WT mice needed for the experiment were obtained. The mice were randomly divided into WT Vehicle group (normal mice), WT test compound group (administration group of normal mice, 5 mg/kg/d, n=10), HD Vehicle group (blank group of HD mice, n=15), HD test compound group (administration groups 1-5 of HD mice, 5 mg/kg/d, n=10). The test compound was suspended in 1% CMC-Na solution and administered by intragastric administration until the end of the study. The weights of the mice were measured every week. Behavioral tests were performed at 12 weeks, 18 weeks, and 24 weeks of age to investigate motor function. At 20 weeks, 3 samples of tissue from each group were used for western blotting and immunohistochemistry. At 24 weeks, MRI scans were performed. At the end of the study, the effect of the test compound on the mortality of mice was evaluated.
(§2) The software Sigmaplot 13.0 was used for statistical analysis of the data, and the data of each group was expressed as mean standard error (x±SEM). Behavioral test results were analyzed using two-way (genotype and processing factor) ANOVA and post-ho tests, the comparison and statistics of weight data were performed using two-way (genotype and age) ANOVA of repeated measures, and mortality was counted using Kaplan-Meier method. Other measurement data were analyzed by one-way ANOVA. P<0.05 was considered statistically significant.
(§3) The motor function of mice was evaluated by the rotarod experiment and three types of balance beam experiments. The shorter the time for mouse to cross the balance beam, and the longer the time to drop, the stronger the coordination ability of the mouse.
(§4) A square balance beam with a length of 100 cm and a width of 11 mm was placed at a 45-degree angle to the horizontal ground. A black box (12×12×12 cm) was placed at the end of the balance beam, and the starting platform was illuminated by bright lights. Spacers were placed under the balance beam to provide cushioning in case that the animal falls off the beam. One hour before the test, the mice were trained to cross the beam three times at one-eighth, one-quarter, and full-length distances from the black box, respectively. If the mice stopped walking during training, they were gently pressed with long forceps on the tail to encourage movement. After the training experiment, the mice rested for at least one hour in an undisturbed environment. In the experiment, the maximum time for each mouse to cross the balance beam was set to 60 seconds. If the time for crossing the beams was greater than 60 seconds, it was recorded as 60 seconds.
a square balance beam with a length of 80 cm and a width of 5 mm was place at a height of about 50 cm from the ground. The following steps are the same as the slope balance beam experiment.

| Compound | Time for crossing the beams, high-altitude balance beam (5 mm) [s] |
| --- | --- |
| CN(C)C1CCN(c2ccc(-c3cc(=O)c4ccc(O)c(O)c4o3)cc2)CC1 [Example 3, 2-(4-(4-(dimethylamino)piperidin-1-yl)phenyl)-7,8-dihydroxy-4H-chromen-4-one] | 12.20 ± 4.45 |
| CC1(C)CCN(c2ccc(-c3cc(=O)c4ccc(O)c(O)c4o3)cc2)CC1 [Example 4, 2-(4-(4,4-dimethylpiperidin-1-yl)phenyl)-7,8-dihydroxy-4H-chromen-4-one] | 13.22 ± 4.59 |
| CC1CC(C)CN(c2ccc(-c3cc(=O)c4ccc(O)c(O)c4o3)cc2)C1 (stereo not drawn) [Example 5, 2-(4-(3,5-dimethylpiperidin-1-yl)phenyl)-7,8-dihydroxy-4H-chromen-4-one] | 14.25 ± 5.34 |

Same assay, conditions: 5 mg/kg/d intragastric, 18 w

| Compound | Time for crossing the beams, high-altitude balance beam (5 mm) [s] |
| --- | --- |
| CN(C)C1CCN(c2ccc(-c3cc(=O)c4ccc(O)c(O)c4o3)cc2)CC1 [Example 3, 2-(4-(4-(dimethylamino)piperidin-1-yl)phenyl)-7,8-dihydroxy-4H-chromen-4-one] | 12.99 ± 4.72 |
| CC1(C)CCN(c2ccc(-c3cc(=O)c4ccc(O)c(O)c4o3)cc2)CC1 [Example 4, 2-(4-(4,4-dimethylpiperidin-1-yl)phenyl)-7,8-dihydroxy-4H-chromen-4-one] | 13.88 ± 5.63 |
| CC1CC(C)CN(c2ccc(-c3cc(=O)c4ccc(O)c(O)c4o3)cc2)C1 (stereo not drawn) [Example 5, 2-(4-(3,5-dimethylpiperidin-1-yl)phenyl)-7,8-dihydroxy-4H-chromen-4-one] | 14.98 ± 5.05 |

Same assay, conditions: 5 mg/kg/d intragastric, 24 w

| Compound | Time for crossing the beams, high-altitude balance beam (5 mm) [s] |
| --- | --- |
| CN(C)C1CCN(c2ccc(-c3cc(=O)c4ccc(O)c(O)c4o3)cc2)CC1 [Example 3, 2-(4-(4-(dimethylamino)piperidin-1-yl)phenyl)-7,8-dihydroxy-4H-chromen-4-one] | 13.11 ± 5.30 |
| CC1(C)CCN(c2ccc(-c3cc(=O)c4ccc(O)c(O)c4o3)cc2)CC1 [Example 4, 2-(4-(4,4-dimethylpiperidin-1-yl)phenyl)-7,8-dihydroxy-4H-chromen-4-one] | 15.92 ± 7.87 |
| CC1CC(C)CN(c2ccc(-c3cc(=O)c4ccc(O)c(O)c4o3)cc2)C1 (stereo not drawn) [Example 5, 2-(4-(3,5-dimethylpiperidin-1-yl)phenyl)-7,8-dihydroxy-4H-chromen-4-one] | 16.80 ± 5.97 |

Test system: N171-82Q HD mice
Assay: Immunohistochemical analysis of mHtt protein aggregates in neurocortex (EM48)
Format: in vivo, mouse
Settings: 5 mg/kg/d until 25 weeks, six visual fields, n = 3
Experimental: as §1
After the behavioral evaluation of the mice in each experimental group was completed and the administration continued until 25 weeks, 3 mice were taken from each group for […]. The right brain isolated from the mice was post-fixed in 4% paraformaldehyde for 24 h. The post-fixed brain tissue was put into 30% sucrose solution to allow it to sink to the bottom, and then brain slices with a thickness of 35 m were cut along the crown with a freezing microtome and placed in DPBS for storage. The stored brain slices were rinsed once with PBS, and blocked with 1 mL goat serum+9 mL PBS+1% TritonX-100 at room temperature on a shaker for 2˜3 h. After blocking, the brain slices were rinsed for 3 times with PBS, 5 min each time. Brain slices were taken out with a small brush and placed in a 24-well plate with primary antibody (anti-Huntingtin, clone mEM48, 1:25, mouse, prepared with blocking solution) for overnight incubation on a shaker in cold room at […]. After washing with PBS, brain slices were placed in a 24-well plate with secondary antibody (555, anti-mouse) for washing, and incubated on a shaker at room temperature for 2 h. After washing with PBS, brain slices was placed in a 24-well plate containing 800 μL DAPI (prepared with PBS, 1:10000) for staining on a shaker at room temperature for 10 min. The brain slices were taken out and placed in a 24-well plate containing 800 μL of PBS for washing on a shaker at room temperature for 10 min. The slide was placed flat on the experimental table with the front side facing upwards, and PBS was added dropwise on the slide to expand the brain slice in PBS. After drying, the mHtt protein was immunofluorescently stained with EM48 antibody (anti-Huntingtin) and photographed for observation.
After immunofluorescence staining of brain tissue, cells with mHtt protein aggregation in six visual fields in the right neurocortex were counted, and the average value was taken for analysis and statistics. A representative image of a neurocortex immunostained with the EM48 antibody for test compound example 1 is shown in FIG. 5, in which the scale bars are 50 μm, and the light-colored dots are cells with mHtt protein aggregation.

| Compound | Average number of cells with mHtt protein aggregation |
| --- | --- |
| CN(C)C1CCN(c2ccc(-c3cc(=O)c4ccc(O)c(O)c4o3)cc2)CC1 [Example 3, 2-(4-(4-(dimethylamino)piperidin-1-yl)phenyl)-7,8-dihydroxy-4H-chromen-4-one] | 148.794 ± 10.157 |
| CC1(C)CCN(c2ccc(-c3cc(=O)c4ccc(O)c(O)c4o3)cc2)CC1 [Example 4, 2-(4-(4,4-dimethylpiperidin-1-yl)phenyl)-7,8-dihydroxy-4H-chromen-4-one] | 155.286 ± 9.567 |
| CC1CC(C)CN(c2ccc(-c3cc(=O)c4ccc(O)c(O)c4o3)cc2)C1 (stereo not drawn) [Example 5, 2-(4-(3,5-dimethylpiperidin-1-yl)phenyl)-7,8-dihydroxy-4H-chromen-4-one] | 151.687 ± 8.365 |

Test system: N171-82Q HD mice
Assay: In vivo MRI scan and brain volume measurement, HD mice
Design: species or system mouse
Settings: 5 mg/kg/d, administered until 24 weeks, n = 4
Experimental: as §1
The WT Vehicle group, WT test compound group, HD Vehicle group and HD test compound group were administered until 24 weeks, and 4 mice in each group were taken for in vivo MRI scanning and brain volume measurement. A 9.4 T MRI scanner equipped with three-axis gradient and animal imaging probes was used. The mice were anesthetized with 1% isoflurane. The breath of mice was monitored, and constant temperature was maintained throughout the scan. Three-dimensional T2 weighted fast spin echo sequence technology was used to obtain images. The imaging resolution and contrast of this technology were sufficient to automatically describe the volume of the mouse brain and substructures. The parameters were as follows: echo time (TE)/repetition time (TR) ^1/440/700 ms, resolution ^1/40.1×0.1×0.1 mm, echo train length ^1/44, average number ^1/42 and flip angle ^1/4408. The instrument contained a powerful linux cluster that can encode and run large-scale deformation diffusion metric maps (LDDMM) to obtain high-intensity standardized images. These transformations encoded morphological differences between images and analyzed based on deformation morphological measurements (DBM) to detect regional changes in brain volume. The volume of the whole brain (Brain), […] was analyzed.
The MRI scanning technology was used to analyze the morphological differences between the experimental object and the template image, and the LDDMM method was used to calculate and analyze the brain tissue structure of the mouse. The statistical results of the brain volume, striatum volume, and neurocortex volume of the test compound Example 1 are shown in FIG. 3, in which FIG. 3A is the statistical results of the whole brain volume, and FIG. 3B is the statistical results of striatum volume, and FIG. 3C is the statistical results of neurocortex volume.

| Compound | MRI volume, Neurocortex | MRI volume, Striatum | MRI volume, Whole brain |
| --- | --- | --- | --- |
| CN(C)C1CCN(c2ccc(-c3cc(=O)c4ccc(O)c(O)c4o3)cc2)CC1 [Example 3, 2-(4-(4-(dimethylamino)piperidin-1-yl)phenyl)-7,8-dihydroxy-4H-chromen-4-one] | 19.05 ± 0.997** mm^3 | 80.34 ± 1.238** mm^3 | 465.33 ± 9.218** mm^3 |
| CC1(C)CCN(c2ccc(-c3cc(=O)c4ccc(O)c(O)c4o3)cc2)CC1 [Example 4, 2-(4-(4,4-dimethylpiperidin-1-yl)phenyl)-7,8-dihydroxy-4H-chromen-4-one] | 18.59 ± 0.899** mm^3 | 79.03 ± 1.834** mm^3 | 461.31 ± 3.451** mm^3 |
| CC1CC(C)CN(c2ccc(-c3cc(=O)c4ccc(O)c(O)c4o3)cc2)C1 (stereo not drawn) [Example 5, 2-(4-(3,5-dimethylpiperidin-1-yl)phenyl)-7,8-dihydroxy-4H-chromen-4-one] | 19.01 ± 0.557** mm^3 | 79.43 ± 0.898** mm^3 | 462.19 ± 2.178** mm^3 |

Test system: N171-82Q HD mice
Assay: High-altitude balance beam (11 mm) experiment 1, HD mice
Format: in vivo, mouse
Settings: 5 mg/kg/d intragastric, 12 w
Experimental: as §1, §2, §3, §4
a round balance beam with a length of 80 cm and a diameter of 11 mm was place at a height of about 50 cm from the ground. The following steps are the same as the slope balance beam experiment.

| Compound | Time for crossing the beams, high-altitude balance beam (11 mm) [s] |
| --- | --- |
| CN(C)C1CCN(c2ccc(-c3cc(=O)c4ccc(O)c(O)c4o3)cc2)CC1 [Example 3, 2-(4-(4-(dimethylamino)piperidin-1-yl)phenyl)-7,8-dihydroxy-4H-chromen-4-one] | 7.94 ± 1.64 |
| CC1(C)CCN(c2ccc(-c3cc(=O)c4ccc(O)c(O)c4o3)cc2)CC1 [Example 4, 2-(4-(4,4-dimethylpiperidin-1-yl)phenyl)-7,8-dihydroxy-4H-chromen-4-one] | 8.57 ± 2.12 |
| CC1CC(C)CN(c2ccc(-c3cc(=O)c4ccc(O)c(O)c4o3)cc2)C1 (stereo not drawn) [Example 5, 2-(4-(3,5-dimethylpiperidin-1-yl)phenyl)-7,8-dihydroxy-4H-chromen-4-one] | 8.04 ± 1.67 |

Same assay, conditions: 5 mg/kg/d intragastric, 18 w

| Compound | Time for crossing the beams, high-altitude balance beam (11 mm) [s] |
| --- | --- |
| CN(C)C1CCN(c2ccc(-c3cc(=O)c4ccc(O)c(O)c4o3)cc2)CC1 [Example 3, 2-(4-(4-(dimethylamino)piperidin-1-yl)phenyl)-7,8-dihydroxy-4H-chromen-4-one] | 8.15 ± 1.96 |
| CC1(C)CCN(c2ccc(-c3cc(=O)c4ccc(O)c(O)c4o3)cc2)CC1 [Example 4, 2-(4-(4,4-dimethylpiperidin-1-yl)phenyl)-7,8-dihydroxy-4H-chromen-4-one] | 8.99 ± 2.29 |
| CC1CC(C)CN(c2ccc(-c3cc(=O)c4ccc(O)c(O)c4o3)cc2)C1 (stereo not drawn) [Example 5, 2-(4-(3,5-dimethylpiperidin-1-yl)phenyl)-7,8-dihydroxy-4H-chromen-4-one] | 8.61 ± 3.25 |

Same assay, conditions: 5 mg/kg/d intragastric, 24 w

| Compound | Time for crossing the beams, high-altitude balance beam (11 mm) [s] |
| --- | --- |
| CN(C)C1CCN(c2ccc(-c3cc(=O)c4ccc(O)c(O)c4o3)cc2)CC1 [Example 3, 2-(4-(4-(dimethylamino)piperidin-1-yl)phenyl)-7,8-dihydroxy-4H-chromen-4-one] | 8.38 ± 3.78 |
| CC1(C)CCN(c2ccc(-c3cc(=O)c4ccc(O)c(O)c4o3)cc2)CC1 [Example 4, 2-(4-(4,4-dimethylpiperidin-1-yl)phenyl)-7,8-dihydroxy-4H-chromen-4-one] | 9.38 ± 2.94 |
| CC1CC(C)CN(c2ccc(-c3cc(=O)c4ccc(O)c(O)c4o3)cc2)C1 (stereo not drawn) [Example 5, 2-(4-(3,5-dimethylpiperidin-1-yl)phenyl)-7,8-dihydroxy-4H-chromen-4-one] | 9.77 ± 4.89 |

— patent publication US20200390755A1, “COMPOUND FOR TREATING NERVOUS SYSTEM DISEASES AND USE THEREOF” (SHAANXI MICOT TECHNOLOGY CO., LTD., priority 2018, published 2020)
